In patent EP2787958B1, “CHELIDONIUM MAJUS EXTRACTS AND THEIR USE IN THE TREATMENT OF SKIN DISORDERS AND PROMOTION OF SKIN REGENERATION” (priority 2011, dated 2013):
Like-named read-outs stand apart in the source and are kept apart here.

Tests used:
[1] = test system: Human dermal fibroblasts (HDF); assay: Mitochondrial dehydrogenase activity (WST-1 formazan assay) in HDF cells; conditions: for Revitalizing agent: 24 hours; for activity at 1 µM / activity at 10 µM: Homo sapiens, Fibroblast, read-out: % mitochondrial dehydrogenase activity ± SD
[2] = Anti-radical activity (decay of the DPPH radical); type: biochemical; conditions: for Anti-radical (skin protective): 24 hours
Procedure: With regard to assays aimed at evaluating anti-radical activity, a chemical test was used where the decay of the diphenylpicrylhydrazyl (DPPH) radical is assessed in the absence or in the presence of the test substances. Indeed, the DPPH radical is used to test the ability of substances to act as free radical scavengers. DPPH in solution has a purple colour with a maximum absorbance peak at 517 nm which changes to yellow-colourless when this radical extracts a hydrogen atom from a radical scavenger to give rise to the reduced form DPPH-H. The assay has been conducted in quadruplicate in 96 well microplates (SARSTEDT Tissue Culture Plate 96-well flat bottom cell+). 50 µl of an ethanol solution of the test substance at 2X concentration and then 50 µl of a 200 µM solution of DPPH (MW 168,18, Aldrich 2,2-di(4-tert-octylphenyl)-1-picrylhydrazyl, free radical Lot# MKBF7574V Cat N° 257621-100 mg) have been added to each well of the microplate. A positive control consisting of 0.1 mM vitamin C and a negative control consisting of ethanol alone were included in each microplate. After 30 minutes from the addition of DPPH, photographs of the plates were taken (Canon PowerShot A610 5.0 Mpixels) and read spectrophotometrically at 530 nm.
Based on the analysis of the results reported in Table 9, some substances were selected for further characterisation of their anti-radical activity. For the selected substances, dose-activity curves were obtained and the IC50 value were computed using a non-linear regression model with the Hill equation at variable slope. Such substances had been selected due to both their anti-radical potential and the easiness of their isolation/production. The selection of substances was made in view of cosmetics applications. Moreover their activity on human dermal fibroblasts (HDF) is expected to be useful also for the development of dermatological medications. The selected substances are discussed below.

HDF cells [3] = assay: Summary of uses and toxic effects deduced from the cell assays (Table 1); type: cell-based, Human; conditions: for Anti-fibrotic (prevention of scar formation, also from acne) / Cytoprotective (antioxidant, anti-inflammatory and anti-ageing; useful also in the treatment of acne) / Cytotoxic / Irritant / Wound-healing: 24 hours
Procedure: Antiradical (skin protective): this is deduced from the free radical scavenger effects.
Revitalizing: this is deduced from the increased mitochondrial dehydrogenase effect.
Cytoprotective, with regard to oxidative damage (antioxidant, anti-inflammatory and anti-ageing): this is deduced from antagonising the stimulation of IL-1β and/or IL-6 induced by 100 µM H2O2 and from the absence of changes in cell morphology similar to the ones due to cell senescence.
Wound healing: this is deduced from the effect of inhibiting the production of IL-1β and by the effect of stimulating cell proliferation under standard growth conditions.
Cytotoxicity: this is deduced from the effect of reducing mitochondrial dehydrogenase activity or from the presence of morphologies characteristic of cell senescence.
Irritation: this is deduced from the effect of increased production of IL-6 and/or IL-1β under standard growth conditions.
Said uses in the fields of medicine and cosmetics or the toxic effects of the substances of the invention at a given dosage, for 24 hours, are summarized in Table 1 below.

HDF cells [4] = assay: Evaluation of cell proliferation (counting of Sirius Red stained cells in photographs); conditions: 24 hours
interleukin 6 (IL-6) = assay: Inflammatory cytokines in cell supernatant (Mosaic ELISA microarray): IL-6; type: cell-based, Human; conditions: for IL-6 ng/(ml* No. of cells from photo) ± SD: 24 hours; for IL-6 production (effect in words): 1-10 µM
Procedure: (§1) The inflammatory cytokines, CD40 ligand (CD40L), interferon γ (INF-γ), interleukin 1α (IL-1α), interleukin 1β (IL-1β), interleukin 6 (IL-6), interleukin 8 (IL-8), interleukin 17 (IL-17) and tumour necrosis factor α (TNF-α) were determined qualitatively and quantitatively. Each measurement was performed in duplicate using a Mosaic™ ELISA protein microarray assay system from R&D System in accordance with the supplier's instructions. Furthermore, with the aim of obtaining a correlation model between light signal intensity and cytokine concentration, a calibration curve using 6 concentrations was performed for each of them. Analysis of the data was performed using the dedicated Q-View™ Imager software package from Quansys Biosciences

interleukin 1β (IL-1β) = assay: Inflammatory cytokines in cell supernatant (Mosaic ELISA microarray): IL-1β; type: cell-based, Human; conditions: for IL-1β ng/(ml* No. of cells from photo) ± SD: 24 hours
Procedure: as §1

[5] = test system: collagen produced by HDF cells; assay: Quantity of collagen produced by the cells (elution of Sirius Red)
[6] = Dose 1 µm (coptisine: 1 pm [sic])

SMILES: COc1ccc2c(c1OC)CN1CCc3cc4c(cc3[C@@H]1C2)OCO4 [canadine]
- concentrations below which no significant effects on mitochondrial dehydrogenase activity are shown [1]: below 0.1 µM
- Revitalizing agent [1, 6]: Yes
- Revitalizing agent ([1]; Dose 10 µm): Yes
- activity at 1 µM ([1]; 18 h): 127 ± 3.64%
- activity at 10 µM ([1]; 18 h): 130 ± 32.4%
- activity at 1 µM ([1]; 42 h): 101 ± 10.6%
- activity at 10 µM ([1]; 42 h): 124 ± 5.34%
- activity at 1 µM ([1]; 46 h): 106 ± 5.25%
- activity at 10 µM ([1]; 46 h): 130 ± 11.1%
- mitochondrial dehydrogenase activity (effect in words) ([1]; between 0.1 and 100 µM, exposure time 18 and 42 h): tendency to increase in a dose-dependent manner
- mitochondrial dehydrogenase activity (effect in words) ([1]; fibroblast cells, higher doses): inhibit mitochondrial dehydrogenase activity
- mitochondrial dehydrogenase activity (effect in words) ([1]; fibroblast cells, low dosage): stimulate mitochondrial dehydrogenase activity
- % DPPH activity ([2]; 1 mM, 30 minutes): 103%
- Anti-radical (skin protective) [2, 6]: No
- Anti-radical (skin protective) ([2]; Dose 10 µm): No
- Anti-fibrotic (prevention of scar formation, also from acne) (HDF cells [3]; [6]): Yes (↓collagen, ↓IL-6, ↓IL-1β)
- Cytoprotective (antioxidant, anti-inflammatory and anti-ageing; useful also in the treatment of acne) (HDF cells [3]; [6]): Yes (↓IL-6, ↓IL-1β)
- Cytotoxic (HDF cells [3]; [6]): No
- Irritant (HDF cells [3]; [6]): No
- Wound-healing (HDF cells [3]; [6]): Yes (↓IL-1β)
- Anti-fibrotic (prevention of scar formation, also from acne) (HDF cells [3]; Dose 10 µm): No
- Cytoprotective (antioxidant, anti-inflammatory and anti-ageing; useful also in the treatment of acne) (HDF cells [3]; Dose 10 µm): No
- Cytotoxic (HDF cells [3]; Dose 10 µm): No
- Irritant (HDF cells [3]; Dose 10 µm): Yes (↓IL-1β)
- Wound-healing (HDF cells [3]; Dose 10 µm): No
- concentrations at which no toxic (cytotoxic and irritant) effects are shown (HDF cells [3]; exposure for 24 hours): less than or equal to 1 µM
- No. of cells from photo ± SD (HDF cells [4]; 1 µM, 34 ng/ml TGF-β1): 206±40
- No. of cells from photo ± SD (HDF cells [4]; 1 µM, 100 µM H2O2): 253±32
- No. of cells from photo ± SD (HDF cells [4]; 1 µM, Standard conditions): 207±12
- No. of cells from photo ± SD (HDF cells [4]; 10 µM, 34 ng/ml TGF-β1): 138±3
- No. of cells from photo ± SD (HDF cells [4]; 10 µM, 100 µM H2O2): 188±25
- No. of cells from photo ± SD (HDF cells [4]; 10 µM, Standard conditions): 138±5
- IL-6 ng/(ml* No. of cells from photo) ± SD (interleukin 6 (IL-6); 1 µM, 34 ng/ml TGF-β1): 451±121 ng/(ml* No. of cells from photo)
- IL-6 ng/(ml* No. of cells from photo) ± SD (interleukin 6 (IL-6); 1 µM, 100 µM H2O2): 584±19 ng/(ml* No. of cells from photo)
- IL-6 ng/(ml* No. of cells from photo) ± SD (interleukin 6 (IL-6); 1 µM, Standard conditions): 405±8 ng/(ml* No. of cells from photo)
- IL-6 ng/(ml* No. of cells from photo) ± SD (interleukin 6 (IL-6); 10 µM, 34 ng/ml TGF-β1): 724±43 ng/(ml* No. of cells from photo)
- IL-6 ng/(ml* No. of cells from photo) ± SD (interleukin 6 (IL-6); 10 µM, 100 µM H2O2): 718±63 ng/(ml* No. of cells from photo)
- IL-6 ng/(ml* No. of cells from photo) ± SD (interleukin 6 (IL-6); 10 µM, Standard conditions): 508±43 ng/(ml* No. of cells from photo)
- IL-6 production (effect in words) (interleukin 6 (IL-6); 34 ng/ml TGF-β1): antagonizes the production of IL-6
- IL-6 production (effect in words) (interleukin 6 (IL-6); 100 µM H2O2): antagonizes the production of IL-6
- IL-6 production (effect in words) (interleukin 6 (IL-6); standard conditions): inhibits the production of IL-6
- IL-1β production (effect in words) (interleukin 1β (IL-1β); 1 µM, 34 ng/ml TGF-β1): antagonizes the production of IL-1β
- IL-1β ng/(ml* No. of cells from photo) ± SD (interleukin 1β (IL-1β); 1 µM, 34 ng/ml TGF-β1): 116±19 ng/(ml* No. of cells from photo)
- IL-1β production (effect in words) (interleukin 1β (IL-1β); 1 µM, 100 µM H2O2): antagonizes the production of IL-1β
- IL-1β ng/(ml* No. of cells from photo) ± SD (interleukin 1β (IL-1β); 1 µM, 100 µM H2O2): 90±3 ng/(ml* No. of cells from photo)
- IL-1β ng/(ml* No. of cells from photo) ± SD (interleukin 1β (IL-1β); 1 µM, Standard conditions): 81±2 ng/(ml* No. of cells from photo)
- IL-1β production (effect in words) (interleukin 1β (IL-1β); 1 µM, standard conditions): inhibits the production of IL-1β
- IL-1β production (effect in words) (interleukin 1β (IL-1β); 10 µM, 34 ng/ml TGF-β1): antagonizes the production of IL-1β
- IL-1β ng/(ml* No. of cells from photo) ± SD (interleukin 1β (IL-1β); 10 µM, 34 ng/ml TGF-β1): 173±14 ng/(ml* No. of cells from photo)
- IL-1β production (effect in words) (interleukin 1β (IL-1β); 10 µM, 100 µM H2O2): antagonizes the production of IL-1β
- IL-1β ng/(ml* No. of cells from photo) ± SD (interleukin 1β (IL-1β); 10 µM, 100 µM H2O2): 132±138 ng/(ml* No. of cells from photo)
- IL-1β ng/(ml* No. of cells from photo) ± SD (interleukin 1β (IL-1β); 10 µM, Standard conditions): 109±1 ng/(ml* No. of cells from photo)
- IL-1β production (effect in words) (interleukin 1β (IL-1β); 10 µM, standard conditions): stimulates the production of IL-1β
- collagen production (effect in words) ([5]; 1 µM, standard conditions): no evident effect on the modulation of collagen production
- collagen production (effect in words) ([5]; 10 µM, standard conditions): collagen production stimulation effect
- collagen production (effect in words) ([5]; 1-10 µM (1 µM and 10 µM), 34 ng/ml TGF-β1): antagonizes the stimulation of collagen induced by 34 ng/ml TGF-β1
- collagen production (effect in words) ([5]; 1-10 µM (1 µM and 10 µM), 100 µM H2O2): inhibits collagen production

SMILES: O=C1O[C@H]([C@@H](O)CO)C(O)=C1O [vitamin C, reference compound]
- % DPPH activity ([2]; 0.1 mM, positive control): 0%
